Among the data in PubChem BioAssay AID200 (DTP/NCI, 2004) are T/C values, retold here.

Where “and” joins values, the source holds several entries; their conditions need not be identical. Equal values may be shown once. Toxic doses and inconclusive results are not listed.

This experiment concerns B6C3F1 mice, B16 melanoma ip, median survival T/C. As to the kind of experiment: NCI In Vivo Anticancer Drug Screen. Data for tumor model B16 Melanoma (intraperitoneal) in B6C3F1 mice. Conditions: endpoint: median survival time, schedule: Q01DX009 (ip), higher = longer survival. Summed up:
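Tumor-bearing mice received test compound; a separate group got vehicle only. Survival was then compared, with results reported as treated over control.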

The mark [1] stands for this setting: dose: 50.0 mg/kg/injection, vehicle: Klucel (hydroxypropylcellulose) (HPC).
[2] abbreviates: dose: 100.0 mg/kg/injection, vehicle: Klucel (hydroxypropylcellulose) (HPC).
[3] abbreviates: dose: 50.0 mg/kg/injection, vehicle: saline with Tween-80.
Setting [4] is: dose: 100.0 mg/kg/injection, vehicle: saline with Tween-80.
Setting [5] is: dose: 200.0 mg/kg/injection, vehicle: saline with Tween-80.
[6] abbreviates: dose: 12.5 mg/kg/injection, vehicle: Klucel (hydroxypropylcellulose) (HPC).
The mark [7] stands for this setting: dose: 25.0 mg/kg/injection, vehicle: Klucel (hydroxypropylcellulose) (HPC).
Setting [8] is: dose: 200.0 mg/kg/injection, vehicle: Klucel (hydroxypropylcellulose) (HPC).
The mark [9] stands for this setting: dose: 6.25 mg/kg/injection, vehicle: Klucel (hydroxypropylcellulose) (HPC).

Consider `CSC1SCC2C(=O)N(C)C(C(C)C)C(=O)OCC(NC(=O)c3cnc4ccccc4n3)C(=O)NC(C)C(=O)N(C)C1C(=O)N(C)C(C(C)C)C(=O)OCC(NC(=O)c1cnc3ccccc3n1)C(=O)NC(C)C(=O)N2C` (stereo not given), for which the T/C runs as follows: (dose: 15.0 micrograms/kg/injection, vehicle: saline with Tween-80) 106 % of control; (dose: 30.0 micrograms/kg/injection, vehicle: saline) 176 % of control; (dose: 32.0 micrograms/kg/injection, vehicle: saline) 176 % of control; (dose: 60.0 micrograms/kg/injection, vehicle: saline with Tween-80) 121 % of control; (dose: 60.0 micrograms/kg/injection, vehicle: saline) 172 % of control; (dose: 64.0 micrograms/kg/injection, vehicle: saline) 176 % of control. Moreover, the T/C (dose: 120.0 micrograms/kg/injection, vehicle: saline) is 209 % of control; the T/C (dose: 128.0 micrograms/kg/injection, vehicle: saline) was 187 % of control; the T/C (dose: 240.0 micrograms/kg/injection, vehicle: saline) was 181 % of control; the T/C (dose: 480.0 micrograms/kg/injection, vehicle: saline with Tween-80) was 170 % of control.

Consider `COC(=O)Nc1cn2ccc(Sc3ccccc3)cc2n1`, for which the T/C by setting is: under setting [1], 122 % of control; under setting [2], 101 % of control.

`Nc1ccc(OCCCc2c(-c3ccccc3)nc(N)[nH]c2=O)cc1`: the T/C is 121 % of control (dose: 25.0 mg/kg/injection, vehicle: saline with Tween-80); 102 % of control under setting [3]; 118 % of control under setting [4]; 96 % of control under setting [5].

On to `CC(C)(C)C1CCCCC1`, for which the T/C reads like this: under setting [6], 97 % of control; under setting [7], 92 % of control; under setting [1], 88 % of control.

As for `Oc1c(Cl)cc(C(c2cc(Cl)c(O)c(Cl)c2)C(c2cc(Cl)c(O)c(Cl)c2)c2cc(Cl)c(O)c(Cl)c2)cc1Cl`, the T/C under setting [6] is 88 % of control and 100 % of control; the T/C under setting [7] is 92 % of control and 99 % of control; the T/C under setting [1] is 93 % of control and 101 % of control; the T/C under setting [2] is 93 % of control and 101 % of control; the T/C under setting [8] was 104 % of control.

For `COC(=O)[C@@]12OC[C@]34[C@H]([C@@H](O)[C@@H]1O)[C@@]1(C)CC(=O)C(O)=C(C)[C@@H]1C[C@H]3OC(=O)[C@H](OC(=O)/C=C(\C)C(C)CO)[C@@H]24` (stereo not given in full), the T/C reads like this: (dose: 6.0 mg/kg/injection, vehicle: saline + alcohol) 174 % of control; (dose: 8.0 mg/kg/injection, vehicle: saline + alcohol) 161 % of control and 173 % of control.

Regarding `CC1=CCC[C@@H]2C1(C)CCC(C)[C@@]2(C)CC1=CC(=O)C=CC1=O` (stereo not given in full), the T/C (dose: 0.75 mg/kg/injection, vehicle: Klucel (hydroxypropylcellulose) (HPC)) was 93 % of control and the T/C (dose: 1.25 mg/kg/injection, vehicle: Klucel (hydroxypropylcellulose) (HPC)) was 95 % of control.

In the case of `Nc1ccc(C(=O)O)c(O)c1`, the T/C was 90 % of control (dose: 4.7 mg/kg/injection, vehicle: saline with Tween-80); 95 % of control under setting [9]; 113 % of control and 103 % of control (dose: 9.3 mg/kg/injection, vehicle: saline with Tween-80); 101 % of control under setting [6]; 93 % of control and 102 % of control (dose: 18.7 mg/kg/injection, vehicle: saline with Tween-80); 109 % of control (2×) and 97 % of control (dose: 37.5 mg/kg/injection, vehicle: saline with Tween-80). Besides, the T/C is 99 % of control and 100 % of control and 106 % of control (dose: 75.0 mg/kg/injection, vehicle: saline with Tween-80); 92 % of control under setting [2]; 93 % of control (dose: 150.0 mg/kg/injection, vehicle: saline with Tween-80); 86 % of control under setting [8]; 97 % of control (dose: 300.0 mg/kg/injection, vehicle: saline with Tween-80).

With `CCCC1CC(C(=O)NC(C(C)O)C2OC(SC)C(O)C(O)C2O)N(C)C1` (stereo not given), the T/C reads like this: under setting [1], 113 % of control; under setting [2], 95 % of control; under setting [8], 100 % of control; (dose: 400.0 mg/kg/injection, vehicle: Klucel (hydroxypropylcellulose) (HPC)) 89 % of control.

For `O=c1[nH]cnc2[nH]ncc12`, the T/C was 103 % of control (dose: 12.5 mg/kg/injection, vehicle: suspension in saline); 112 % of control (dose: 25.0 mg/kg/injection, vehicle: suspension in saline); 97 % of control (dose: 50.0 mg/kg/injection, vehicle: suspension in saline); 88 % of control (dose: 100.0 mg/kg/injection, vehicle: suspension in saline).

For `COc1c(CNC(=O)CCl)cc2[nH]c(C)cc2c1CNC(=O)CCl`, the T/C was 104 % of control under setting [6], 105 % of control under setting [7] and 116 % of control under setting [2].

With `[Cl][Pt+2][Cl].[NH-]c1ccc(C(=O)c2ccccc2)cc1[NH-]`, the T/C was 109 % of control and 107 % of control (dose: 20.0 mg/kg/injection, vehicle: saline with Tween-80); 114 % of control and 116 % of control (dose: 40.0 mg/kg/injection, vehicle: saline with Tween-80); 112 % of control and 115 % of control (dose: 80.0 mg/kg/injection, vehicle: saline with Tween-80); 116 % of control (dose: 160.0 mg/kg/injection, vehicle: saline with Tween-80); 110 % of control and 121 % of control (dose: 320.0 mg/kg/injection, vehicle: saline with Tween-80).

Consider `S=C(NCNC(=S)c1ccncc1)c1ccncc1`, for which the T/C by setting is: under setting [3], 102 % of control; under setting [4], 91 % of control; under setting [5], 100 % of control; (dose: 400.0 mg/kg/injection, vehicle: saline with Tween-80) 104 % of control.

For `CC(=O)OCC1C(=O)OCC1C(=O)N1Cc2cc3ccccc3nc2C1` (stereo not given), the T/C is 115 % of control (dose: 8.0 mg/kg/injection, vehicle: saline with Tween-80); 95 % of control (dose: 16.0 mg/kg/injection, vehicle: saline with Tween-80); 100 % of control (dose: 32.0 mg/kg/injection, vehicle: saline with Tween-80); 91 % of control (dose: 64.0 mg/kg/injection, vehicle: saline with Tween-80); 88 % of control (dose: 128.0 mg/kg/injection, vehicle: saline with Tween-80).

In the case of `O=C(O)c1cc(Cc2ccc(O)c(C(=O)O)c2)ccc1O` (tested in a mixture with another compound), the T/C is, setting by setting: under setting [9], 101 % of control; under setting [6], 105 % of control; under setting [7], 103 % of control; under setting [1], 94 % of control; under setting [2], 90 % of control; under setting [8], 93 % of control.
